From publication PMC6720019 (Pharmaceutical Biology, 2019)

Legend:
Type in all cases: in vitro ADME
Settings in all cases: 100 μM KF, pooled HLMs
[1] = target: T1, CYP2A6 (Homo sapiens, UniProt P11509); experiment: CYP2A6 inhibition in pooled human liver microsomes (coumarin 7-hydroxylation)
T1 construct: effects of KF on eight major CYP isoforms in human liver microsomes (HLMs); from tissue; host or cells: human liver microsomes
T1 sequence (P11509 1-494): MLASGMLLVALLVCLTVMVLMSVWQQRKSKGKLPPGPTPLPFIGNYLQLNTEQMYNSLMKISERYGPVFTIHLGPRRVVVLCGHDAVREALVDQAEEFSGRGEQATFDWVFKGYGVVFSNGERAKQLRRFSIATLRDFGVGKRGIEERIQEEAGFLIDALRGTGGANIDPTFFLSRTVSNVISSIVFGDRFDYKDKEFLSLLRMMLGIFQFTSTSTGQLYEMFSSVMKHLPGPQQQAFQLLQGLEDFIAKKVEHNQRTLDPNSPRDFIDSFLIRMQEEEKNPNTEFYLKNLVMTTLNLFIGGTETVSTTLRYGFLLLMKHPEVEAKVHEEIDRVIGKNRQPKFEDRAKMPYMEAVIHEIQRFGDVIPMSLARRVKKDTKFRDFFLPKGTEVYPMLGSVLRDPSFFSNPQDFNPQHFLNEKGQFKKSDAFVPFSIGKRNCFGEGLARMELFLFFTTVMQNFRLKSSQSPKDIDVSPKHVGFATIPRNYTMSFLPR
Description: (§1) All incubations were performed in triplicate, and the mean values were utilized. The typical incubation systems contained 100 mM potassium phosphate buffer (pH 7.4), NADPH generating system (1 mM NADP^+, 10 mM glucose-6-phosphate, 1 U/mL of glucose-6-phosphate dehydrogenase, and 4 mM MgCl2), the appropriate concentration of HLM, a corresponding probe substrate and KF (or positive inhibitor for different probe reactions) in a final volume of 200 μL.
(§2) The concentration of KF was 100 μM according literatures (Lang et al. [2016]; Liu et al. [2017]; Zhang et al. [2019]), and the positive inhibitor concentrations were as follows: 10 μM furafylline for CYP1A2, 1 μM ketoconazole for CYP3A4, 10 μM tranylcypromine for CYP2A6, 50 μM clomethiazole for CYP2E1, 10 μM quinidine for CYP2D6, 10 μM sulfaphenazole for CYP2C9, 50 μM tranylcypromine for CYP2C19, 5 μM montelukast for CYP2C8. Probe substrates, positive inhibitors (except for dextromethorphan and quinidine which were dissolved in water) and KF were dissolved in methanol, with a final concentration of 1% (v/v), and 1% neat methanol was added to the incubations without inhibitor. […] The instrument used in this study were Agilent 1260 series instrument with DAD and FLD detector, and the quantitative assay for the corresponding metabolites was performed as previously reported (Lang et al. [2016]; Zhang et al. 2016). […]

[2] = target: T2, CYP2D6 (Homo sapiens, UniProt P10635); experiment: CYP2D6 inhibition in pooled human liver microsomes (dextromethorphan O-demethylation)
T2 construct: effects of KF on eight major CYP isoforms in human liver microsomes (HLMs); from tissue; host or cells: human liver microsomes
Description: as §1, §2

[3] = target: T3, CYP2C19 (Homo sapiens, UniProt P33261); experiment: CYP2C19 inhibition in pooled human liver microsomes (S-mephenytoin 4-hydroxylation)
T3 construct: effects of KF on eight major CYP isoforms in human liver microsomes (HLMs); from tissue; host or cells: human liver microsomes
Description: as §1, §2

[4] = target: T4, CYP2E1 (Homo sapiens, UniProt P05181); experiment: CYP2E1 inhibition in pooled human liver microsomes (chlorzoxazone 6-hydroxylation)
T4 construct: effects of KF on eight major CYP isoforms in human liver microsomes (HLMs); from tissue; host or cells: human liver microsomes
Description: as §1, §2

[5] = target: T5, CYP2C8 (Homo sapiens, UniProt P10632); experiment: CYP2C8 inhibition in pooled human liver microsomes (paclitaxel 6α-hydroxylation)
T5 construct: effects of KF on eight major CYP isoforms in human liver microsomes (HLMs); from tissue; host or cells: human liver microsomes
T5 sequence (P10632 1-490): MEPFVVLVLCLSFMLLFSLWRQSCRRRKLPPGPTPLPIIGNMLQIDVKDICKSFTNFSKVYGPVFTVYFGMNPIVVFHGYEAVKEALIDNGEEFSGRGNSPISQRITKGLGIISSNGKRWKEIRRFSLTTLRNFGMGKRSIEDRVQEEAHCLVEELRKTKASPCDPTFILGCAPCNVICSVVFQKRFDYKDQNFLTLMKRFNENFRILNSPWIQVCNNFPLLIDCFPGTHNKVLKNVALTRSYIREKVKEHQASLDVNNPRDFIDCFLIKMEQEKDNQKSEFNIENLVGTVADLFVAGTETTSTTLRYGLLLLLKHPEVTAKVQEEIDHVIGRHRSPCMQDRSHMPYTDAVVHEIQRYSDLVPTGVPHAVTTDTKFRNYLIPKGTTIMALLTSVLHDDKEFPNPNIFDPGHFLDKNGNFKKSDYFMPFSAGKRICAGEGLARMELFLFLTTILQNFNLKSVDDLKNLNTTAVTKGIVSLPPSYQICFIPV
Description: as §1, §2

T3 sequence (P33261 whole entry, canonical isoform): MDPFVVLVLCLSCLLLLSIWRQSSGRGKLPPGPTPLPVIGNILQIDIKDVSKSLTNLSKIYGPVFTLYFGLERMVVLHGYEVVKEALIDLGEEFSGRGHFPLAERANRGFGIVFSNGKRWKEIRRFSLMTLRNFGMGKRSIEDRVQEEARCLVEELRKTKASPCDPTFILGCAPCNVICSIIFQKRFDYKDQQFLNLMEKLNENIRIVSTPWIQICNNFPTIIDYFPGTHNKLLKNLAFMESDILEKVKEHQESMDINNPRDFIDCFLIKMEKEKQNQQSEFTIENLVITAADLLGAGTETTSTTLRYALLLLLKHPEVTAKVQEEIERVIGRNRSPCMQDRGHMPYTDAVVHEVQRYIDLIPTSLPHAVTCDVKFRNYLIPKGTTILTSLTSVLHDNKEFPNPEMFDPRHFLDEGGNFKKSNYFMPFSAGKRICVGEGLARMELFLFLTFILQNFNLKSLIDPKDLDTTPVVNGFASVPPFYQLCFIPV
T4 sequence (P05181 whole entry, canonical isoform): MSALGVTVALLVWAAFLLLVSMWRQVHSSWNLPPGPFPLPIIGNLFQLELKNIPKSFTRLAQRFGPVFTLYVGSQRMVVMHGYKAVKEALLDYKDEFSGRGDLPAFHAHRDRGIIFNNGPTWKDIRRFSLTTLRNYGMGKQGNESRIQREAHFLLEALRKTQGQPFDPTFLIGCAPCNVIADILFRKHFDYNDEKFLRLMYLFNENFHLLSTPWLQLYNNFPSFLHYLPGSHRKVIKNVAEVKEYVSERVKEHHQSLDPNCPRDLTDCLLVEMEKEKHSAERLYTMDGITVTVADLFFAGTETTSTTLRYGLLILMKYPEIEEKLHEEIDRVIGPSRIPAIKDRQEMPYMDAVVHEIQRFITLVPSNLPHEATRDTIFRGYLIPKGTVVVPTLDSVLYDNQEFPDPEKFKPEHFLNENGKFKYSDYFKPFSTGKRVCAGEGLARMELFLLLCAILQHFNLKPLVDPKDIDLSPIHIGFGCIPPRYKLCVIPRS
T2 sequence (P10635 whole entry, canonical isoform): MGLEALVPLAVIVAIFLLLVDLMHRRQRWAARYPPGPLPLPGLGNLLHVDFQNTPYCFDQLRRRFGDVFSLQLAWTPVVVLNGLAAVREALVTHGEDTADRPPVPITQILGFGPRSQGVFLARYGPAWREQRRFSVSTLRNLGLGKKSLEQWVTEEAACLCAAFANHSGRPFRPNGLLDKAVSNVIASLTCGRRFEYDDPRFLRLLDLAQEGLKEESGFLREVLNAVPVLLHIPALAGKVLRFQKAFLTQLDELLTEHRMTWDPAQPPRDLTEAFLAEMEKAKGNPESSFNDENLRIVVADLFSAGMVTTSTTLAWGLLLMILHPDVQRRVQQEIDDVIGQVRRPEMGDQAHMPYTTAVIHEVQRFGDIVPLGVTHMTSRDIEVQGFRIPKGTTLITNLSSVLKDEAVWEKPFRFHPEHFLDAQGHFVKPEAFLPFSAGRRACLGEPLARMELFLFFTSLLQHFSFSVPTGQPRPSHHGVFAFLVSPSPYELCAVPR

C[C@@H]1O[C@@H](Oc2cc(O)c3c(=O)c(O[C@@H]4O[C@@H](C)[C@H](O)[C@@H](O)[C@H]4O)c(-c4ccc(O)cc4)oc3c2)[C@H](O)[C@H](O)[C@H]1O [KF, Kaempferitrin]
did not inhibit: Inhibition of CYP2A6 activity [1] | Inhibition of CYP2D6 activity [2] | Inhibition of CYP2C19 activity [3] | Inhibition of CYP2E1 activity [4] | Inhibition of CYP2C8 activity [5]
